Experimental data published in paper PMC10033409, “Autoregulation of GPCR signalling through the third intracellular loop” (Nature, 2023).
Several values for one entry are separate records, joined by “and”; a condition that tells them apart may be missing. Equal values may be shown once. Values belong to the compound of their own block, whether it stands above or below them.

Experiments:
PTH1R–Gs peptide = assay: PTH1R-luciferase complementation reporter assay, Gs peptide; format: biochemical, human; conditions: PTH1R construct named by the receptor or protein whose sequence replaces ICL3 (WT = wild-type); X axis of Figure 5G
PTH1R–Gq peptide = assay: PTH1R-luciferase complementation reporter assay, Gq peptide; format: biochemical, human; conditions: PTH1R construct named by the receptor or protein whose sequence replaces ICL3 (WT = wild-type); Y axis of Figure 5G
Method: For PTH1R luciferase complementation reporter assays, cells were seeded the day prior to transfection at 25-30% confluence on 12-well plates. For each transfection, 0.5 μg DNA, 1.5 μl X-tremeGENE HP, and 100 μl Opti-MEM were combined, incubated for 15-20 min, and added to seeded wells. For each mutant, PTH1R-Gs peptide, PTH1R-Gq peptide and PTH1R-(no peptide) constructs were transfected in parallel. Spep and Qpep constructs were transfected 24 h prior to collection, and no-peptide constructs were transfected 18 h before collection. […] Media in each well was used to gently shear and resuspend the cells by pipetting. The cell mixture was centrifuged (3 min, 300g) and the media was aspirated. Cell pellet was resuspended in 1 ml PBS and centrifuged again as above. […] Cellular debris was removed by centrifugation (1,000g for 1 min). To collect additional vesicles, debris was resuspended in 0.3 ml PBS, briefly vortexed, and centrifuged again (1,000g for 1 min). The ~0.9 ml of combined decanted supernatant was centrifuged one additional time (1,000g for 2 min) to better remove cellular debris. […] Vesicle samples were collected in a 96-well clear bottom plate and assayed for TagRFP fluorescence (Tecan Spark, excitation 521 nm, emission 585 nm, gain 150). For each set of constructs for a given […] ([…] control), samples were diluted to the lowest TagRFP counts. […] The plate was tapped 2-3 times to mix, and the kinetic read was resumed. Moving averages were computed for each kinetic trace (3-point averages for 5 min equilibration, 8-point moving averages post-drug treatment). Each kinetic trace was normalized to the last point of the pre-drug equilibration. The maximum luminescence value that appeared stable over time was used for further analysis. Specific Spep and Qpep signals were calculated by subtracting the control value from the Spep value and the Qpep value for a given experiment.

A1R [1] = biological target: T1, A1R (Homo sapiens, UniProt P30542); assay: cAMP accumulation, A1R; format: cell-based; conditions: AA1R Wild-Type; saturating agonist concentration; 500 µM IBMX
T1 sequence (P30542 1-326): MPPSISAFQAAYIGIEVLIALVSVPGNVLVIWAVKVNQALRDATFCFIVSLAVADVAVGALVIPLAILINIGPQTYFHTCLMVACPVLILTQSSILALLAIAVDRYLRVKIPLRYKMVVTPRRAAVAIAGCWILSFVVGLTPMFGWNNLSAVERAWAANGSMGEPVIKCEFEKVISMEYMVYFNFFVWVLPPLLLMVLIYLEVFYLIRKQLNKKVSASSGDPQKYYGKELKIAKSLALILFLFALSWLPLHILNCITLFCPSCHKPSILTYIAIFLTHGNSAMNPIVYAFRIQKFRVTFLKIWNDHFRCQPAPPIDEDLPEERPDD
Method: (§1) One millilitre of medium was removed from each well containing transfected cells. The remaining volume was used to gently shear and resuspend the cells by pipetting. The cell mixture was centrifuged (3 min, 300g) and media was removed using a vacuum manifold. […] . The cells were washed once by repeating this procedure.
(§2) For all other second messenger assays, expression level and cell density of each condition was estimated through fluorescence. […] Cells were resuspended at 350,000 ± 30,000 fluorescence counts at a wavelength representing optical density of the sample (excitation 430 nm/emission 450 nm), corresponding with 2 × 10^6 ± 5 × 10^5 cells per m^l. This was confirmed by counting the cells on a haemocytometer (Countess II). The following metrics were assessed for optimal expression: mCerulean peak emission (excitation 430 nm/475 nm):optical density emission (excitation 430 nm/emission 450 nm) of 2.0 ± 0.3 and mCitrine peak emission (excitation 490 nm/emission 525 nm):mCerulean peak emission (excitation 430 nm/emission 475 nm) of 2.0 ± 0.2.
(§3) Resuspended cells were added 1:1 with a 2× concentration of ligand (10 µl final) into an opaque 384-well flat bottom plate (Greiner Bio-One). […] . for FSK inhibition assays with β-ARs, 100 µM metoprolol was used. […] Luminescence was measured on a Tecan Spark plate reader (500 ms integration, one measurement per well).

A1R [2] = biological target: T2, A1R (Homo sapiens, UniProt P30542, DEL216-222); assay: cAMP accumulation, A1R; format: cell-based; conditions: AA1R ∆ICL3; saturating agonist concentration; 500 µM IBMX
T2 construct: expressed in transfected cells; host or cells: transfected cells (HEK 293T for the β2AR assay)
T2 sequence (P30542 with tags, fused parts or gaps DEL216-222): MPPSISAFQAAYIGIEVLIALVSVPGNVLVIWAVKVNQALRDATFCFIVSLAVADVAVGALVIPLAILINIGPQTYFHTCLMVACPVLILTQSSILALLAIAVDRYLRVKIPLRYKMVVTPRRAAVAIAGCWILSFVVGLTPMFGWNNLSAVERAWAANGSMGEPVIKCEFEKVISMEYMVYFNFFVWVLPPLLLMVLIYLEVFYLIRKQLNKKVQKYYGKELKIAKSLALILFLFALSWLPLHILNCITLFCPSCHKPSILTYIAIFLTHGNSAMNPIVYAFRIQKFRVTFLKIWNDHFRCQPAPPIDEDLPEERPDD
Method: as §1, §2, §3

A1R [3] = biological target: T1, A1R; assay: InsP1 accumulation, A1R; format: cell-based; conditions: AA1R Wild-Type; saturating agonist concentration
Description: (§6) For all other second messenger assays, expression level and cell density of each condition was estimated through fluorescence. Fluorescence spectra for mCerulean (Horiba Fluoromax 4, excitation 430 nm, emission scan 450–600 nm, bandpass 4 nm) and mCitrine (Horiba Fluoromax 4, excitation 490 nm, emission scan 500–600 nm, bandpass 4 nm) were acquired for each condition. Cells were resuspended at 350,000 ± 30,000 fluorescence counts at a wavelength representing optical density of the sample (excitation 430 nm/emission 450 nm), corresponding with 2 × 10^6 ± 5 × 10^5 cells per m^l. […]
(§7) Resuspended cells were added 1:1 with a 2× concentration of ligand (70 µl final) into an opaque 96-well U-bottom plate (Greiner Bio-One). […] FRET ratio for each reading was calculated as the ratio of acceptor emission to donor emission. InsP1 signal for a drug and transfection combination was calculated as the average FRET ratio of a given transfection condition without drug treatment subtracted from the average FRET ratio of a of a given transfection condition with drug treatment.

A1R [4] = biological target: T2, A1R; assay: InsP1 accumulation, A1R; format: cell-based; conditions: AA1R ∆ICL3; saturating agonist concentration
Description: as §6, §7

β2AR–mCerulean = β2AR–mCerulean (Homo sapiens, UniProt P07550, DEL236-262); conditions: ∆ICL3 β2AR–mCerulean; 10 µM biotinylated Gq peptide, 100 µM isoproterenol; single experiments 1-4
Method: Bio-Spep/Bio-Qpep (10 µM final) was added to the reaction mixture (300 µl final) and equilibrated on ice for 30 min. […] To the remaining 200 µl, 20 µl of 0.4 mg ml^−1 streptavidin-coated magnetic beads were added to the reaction mixture, equilibrated for 5 min at ambient temperature, and precipitated using a neodymium disc magnet N52 (20 × 40 mm). Fluorescence spectra was taken of the remaining supernatant in duplicate.

β2AR [5] = assay: cAMP accumulation (cAMP-Glo), β2AR; format: cell-based, human; conditions: Extended Data Figure 6B
CB1R [6] = biological target: T3, CB1R (Mus musculus, UniProt P47746); assay: cAMP accumulation, CB1R; format: cell-based, murine; conditions: CB1R Wild-Type; saturating agonist concentration; 500 µM IBMX
T3 construct: expressed in transfected cells; host or cells: transfected cells (HEK 293T for the β2AR assay)
Method: as §1, §2, §3

CB1R [7] = biological target: T4, CB1R (Mus musculus, UniProt P47746, DEL312-328); assay: cAMP accumulation, CB1R; format: cell-based, murine; conditions: CB1R ∆ICL3; saturating agonist concentration; 500 µM IBMX
T4 construct: expressed in transfected cells; host or cells: transfected cells (HEK 293T for the β2AR assay)
Method: as §1, §2, §3

CB1R [8] = biological target: T3, CB1R; assay: InsP1 accumulation, CB1R; format: cell-based, murine; conditions: CB1R Wild-Type; saturating agonist concentration
Method: (§4) One millilitre of medium was removed from each well containing transfected cells. The remaining volume was used to gently shear and resuspend the cells by pipetting. The cell mixture was centrifuged (3 min, 300g) and media was removed using a vacuum manifold. […] The cells were washed once by repeating this procedure.
as §2
(§5) Resuspended cells were added 1:1 with a 2× concentration of ligand (70 µl final) into an opaque 96-well U-bottom plate (Greiner Bio-One). […] Plates were incubated at 37 °C for 2 h to stimulate InsP1 production. […] FRET ratio for each reading was calculated as the ratio of acceptor emission to donor emission. […]

CB1R [9] = biological target: T4, CB1R; assay: InsP1 accumulation, CB1R; format: cell-based, murine; conditions: CB1R ∆ICL3; saturating agonist concentration
Method: as §4, §2, §5

β2AR L258Azi (Δ350-413) = biological target: T5, β2AR L258Azi (Δ350-413) (Homo sapiens, UniProt P07550, L258F); assay: Time-correlated single photon counting, other sensor designs and dye-only controls (mNeonGreen/Cy3, TagRFP/AZDye488, free dyes); format: biochemical; conditions: Extended Data Figure 4L
T5 construct: HA; mNeonGreen, TagRFP or SNAP (differs by sensor design); expressed in transfected cells; host or cells: crude membrane extracts of transfected cells (HEK293), co-transfected with pIRE4-Azi
Method: Solution was homogenized, first by passing through a 1 ml micropipette 10 times, then passing through a 20-gauge needle 10 times. To initiate the reaction, sodium ascorbate (50 mM) was added to the mixture and mixed by pipetting (2 ml final volume). Reactions were incubated with mild shaking (500 rpm) for 30 min at 25 °C. […] For conditions without drug, peptide or nanobody, an equivalent volume of assay buffer was added. Reactions were equilibrated for 5 min prior to reading.

β2AR [10] = biological target: β2AR (Homo sapiens, UniProt P07550); conditions: wild-type β2AR; presence of Gq peptide
Method: (§8) Reactions were equilibrated, washed, and measured following the same procedure listed above for the radioligand antagonist-binding assay. […] Weighted averages of these IC50 values were used for comparison purposes and inhibition constant (Ki) calculations. […] Binding assays were performed in technical duplicates. Three biological replicates were collected with different membrane preparations for each replicate.

β2AR [11] = conditions: β2AR(∆ICL3); presence of Gq peptide
Method: as §8

[12] = biological target: β2AR–Gs peptide FRET sensor (Homo sapiens, UniProt P07550, DEL236-257); assay: ∆FRET assay, β2AR–Gs peptide SPASM FRET sensor; conditions: β2AR(∆ICL3)–Gs peptide sensor
[13] = tested on: β2AR–Gs peptide FRET sensor; assay: ∆FRET assay, β2AR–Gs peptide SPASM FRET sensor; conditions: wild-type β2AR–Gs peptide sensor
[14] = biological target: β2AR ICL3 FRET sensor, β2AR(L258Azi/Y350Azi/∆351–413) (Homo sapiens, UniProt P07550, L258F/Y350F); assay: Time-correlated single photon counting FRET assay, β2AR ICL3 FRET sensor (AZDye488/AZDye546)
Method: Cell membranes were prepared following the procedure in ‘Crude cell membrane extracts’ through the first ultracentrifugation step (135,000g, 25 min, 4 °C). […] Solution was homogenized, first by passing through a 1 ml micropipette 10 times, then passing through a 20-gauge needle 10 times. To initiate the reaction, sodium ascorbate (50 mM) was added to the mixture and mixed by pipetting (2 ml final volume). Reactions were incubated with mild shaking (500 rpm) for 30 min at 25 °C.
For conditions without drug, peptide or nanobody, an equivalent volume of assay buffer was added. Reactions were equilibrated for 5 min prior to reading. […] Time-resolved fluorescence decay data were fit to the equation: Decay=α1e^−t/τ^1+α2e^−t/τ^2+α3e^−t/τ^3
Amplitude-weighted average lifetimes (τavg) were calculated from the three-exponential decay equation: τavg=(α1τ1+α2τ2+α3τ3)/(α1+α2+α3)
Each condition was performed in technical duplicate or triplicate, depending on sensor yield.

[15] = β2AR wild-type and ICL3 alanine mutants, replicates N 1-6, some omitted from analysis
[16] = Extended Data Figure 6I, replicates 1-4

T3 sequence (P47746 whole entry): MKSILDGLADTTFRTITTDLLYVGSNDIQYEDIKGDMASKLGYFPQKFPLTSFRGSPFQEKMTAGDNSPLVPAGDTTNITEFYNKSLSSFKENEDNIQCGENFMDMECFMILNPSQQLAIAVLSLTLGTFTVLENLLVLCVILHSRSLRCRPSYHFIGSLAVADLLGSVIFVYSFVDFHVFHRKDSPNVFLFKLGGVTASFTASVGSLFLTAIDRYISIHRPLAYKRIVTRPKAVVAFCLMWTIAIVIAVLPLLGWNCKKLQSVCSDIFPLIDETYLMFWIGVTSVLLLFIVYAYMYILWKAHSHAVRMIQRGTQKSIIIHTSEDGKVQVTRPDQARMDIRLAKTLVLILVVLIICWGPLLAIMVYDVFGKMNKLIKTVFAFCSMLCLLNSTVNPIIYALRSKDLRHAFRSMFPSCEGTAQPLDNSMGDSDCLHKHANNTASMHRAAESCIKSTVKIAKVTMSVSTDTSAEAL
T4 sequence (P47746 with tags, fused parts or gaps DEL312-328): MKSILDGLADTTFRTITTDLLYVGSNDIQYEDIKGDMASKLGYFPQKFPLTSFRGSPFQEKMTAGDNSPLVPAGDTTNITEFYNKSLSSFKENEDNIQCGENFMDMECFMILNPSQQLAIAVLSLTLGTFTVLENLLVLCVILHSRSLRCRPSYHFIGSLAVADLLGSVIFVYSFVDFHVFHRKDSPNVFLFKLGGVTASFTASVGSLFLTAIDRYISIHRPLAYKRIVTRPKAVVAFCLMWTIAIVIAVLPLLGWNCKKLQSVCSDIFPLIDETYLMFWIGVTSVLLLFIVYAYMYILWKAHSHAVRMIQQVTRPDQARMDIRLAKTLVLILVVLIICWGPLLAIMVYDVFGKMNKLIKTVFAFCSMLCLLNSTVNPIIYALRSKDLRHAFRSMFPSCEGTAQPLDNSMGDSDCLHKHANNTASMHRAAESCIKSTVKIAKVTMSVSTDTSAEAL

Specific Peptide Signal, Gs (Average) (PTH1R–Gs peptide): 0.79 | Specific Peptide Signal, Gq (Average) (PTH1R–Gq peptide): 0.14
Compound: GPR27

Compound: 5HT2A
Specific Peptide Signal, Gs (Average) (PTH1R–Gs peptide): 0.37 | Specific Peptide Signal, Gq (Average) (PTH1R–Gq peptide): 0.0157

Specific Peptide Signal, Gs (Average) (PTH1R–Gs peptide): 0.39
Compound: Gamma-synuclein

Specific Peptide Signal, Gs (Average) (PTH1R–Gs peptide): 0.47 | Specific Peptide Signal, Gq (Average) (PTH1R–Gq peptide): 0.0635
Compound: ADRB1

cAMP (AU), Average (A1R [1]): -0.0258 AU | cAMP (AU), Average (A1R [2]): 0.0561 AU | IP1 (AU), Average (A1R [3]): 0.15 AU | IP1 (AU), Average (A1R [4]): 0.0652 AU
Compound: OC[C@H]1O[C@@H](n2cnc3c(NC4CCCC4)ncnc32)[C@H](O)[C@@H]1O [N^6-cyclopentyladenosine]

Compound: N-Biotin-DTENIRFVFAAVKDTILQLNLKEYNLV [Bio-Qpep]
Specific mCerulean bound (β2AR–mCerulean): 0.09 and 0.14 and 0.15 and 0.12

Compound: CNR2
Specific Peptide Signal, Gs (Average) (PTH1R–Gs peptide): 0.55 | Specific Peptide Signal, Gq (Average) (PTH1R–Gq peptide): 0.16

Compound: HVQ-AAA
cAMP (Relative to Wild-Type Average) (β2AR [5]; Average): 1.18 | cAMP (Relative to Wild-Type Average) (β2AR [5]; [15]): 0.92 and 1.04 and 1.40 and 1.30 and 1.16 and 1.28

Compound: CCCCC/C=C\C/C=C\C/C=C\C/C=C\CCCC(=O)OC(CO)CO [2-Arachidonoylglycerol]
cAMP (AU), Average (CB1R [6]): 0.05 AU | cAMP (AU), Average (CB1R [7]): 0.16 AU | IP1 (AU), Average (CB1R [8]): 0.14 AU | IP1 (AU), Average (CB1R [9]): 0.27 AU

Fluorescence lifetime, Labeled Receptor, individual replicates 1-3 (β2AR L258Azi (Δ350-413)): 2.34 and 2.19 and 2.32 | Fluorescence lifetime, Labeled Receptor, Average (β2AR L258Azi (Δ350-413); average of 3): 2.28
Compound: Oregon Green

Specific Peptide Signal, Gs (Average) (PTH1R–Gs peptide): 0.48 | Specific Peptide Signal, Gq (Average) (PTH1R–Gq peptide): 0.14
Compound: NTS1

Compound: QDG-AAA
cAMP (Relative to Wild-Type Average) (β2AR [5]; Average): 1.60 | cAMP (Relative to Wild-Type Average) (β2AR [5]; [15]): 1.35 and 1.62 and 1.56 and 1.90 and 1.60 and 1.57

Specific Peptide Signal, Gs (Average) (PTH1R–Gs peptide): 0.24 | Specific Peptide Signal, Gq (Average) (PTH1R–Gq peptide): -0.15
Compound: 5HT1D

Specific Peptide Signal, Gs (Average) (PTH1R–Gs peptide): 0.66 | Specific Peptide Signal, Gq (Average) (PTH1R–Gq peptide): -0.09
Compound: HRH1

Compound: DTENIRFVFAAVKDTILQLNLKEYNLV [Gq peptide]
effect on agonist binding affinity (β2AR [10]): increased agonist binding affinity | effect on agonist binding affinity (β2AR [11]): this effect was lost | effect on FRET of β2AR–Gs peptide sensor [12]: did not enhance FRET | effect on FRET of β2AR–Gs peptide sensor [13]: enhanced FRET | Donor-only sample (tau donor) Lifetime (ns) [14, 16]: 2.34 ns and 2.38 ns and 2.28 ns and 2.27 ns | FRET sample (tau FRET) Lifetime (ns) [14, 16]: 2.42 ns (2×) and 2.32 ns and 2.40 ns | effect on FRET of the ICL3 FRET sensor ([14]; Gq peptide alone): increased FRET to a similar level to the agonist alone | effect on FRET of the ICL3 FRET sensor ([14]; combination of agonist and Gq peptide): decreased FRET

Compound: Humanin
Specific Peptide Signal, Gs (Average) (PTH1R–Gs peptide): 0.41
